What was measured:
Type in all cases: cell-based, recombinant influenza virus in WSN background
[1] = tested on: compound 3061-resistant rWSN virus (Y52H mutation at NP)
[2] = tested on: Y52H/Y289H double mutation rWSN virus; details: read-out: Anti-rWSN IC50 (μM), NP Y52H/Y289H
[3] = tested on: nucleozin-resistant rWSN virus (Y289H mutation at NP)

How did the “inhibition of 3061-resistant strain” value [1] turn out when `O=C(NCCCN1CCOCC1)c1csc(Nc2ccc(Cl)c(Cl)c2)n1` [compound 1] was run?
Its value is “capable of inhibiting”.

And the IC50 ([1]; read-out: Anti-rWSN IC50 (μM), NP Y52H)?
The IC50 was 3.2 µM.

What about the IC50 [2] of the same compound?
Its IC50 is 1.8 µM.

What about the “inhibition of nucleozin-resistant strain” value [3] of the same compound?
Its value is “capable of inhibiting”.

What about the IC50 ([3]; read-out: Anti-rWSN IC50 (μM), NP Y289H) of the same compound?
The IC50 was 4 µM.

Source: US20130040952A1 (priority 2011, published 2013)
